Tests used:
surinam grass = assay: Test B pre/postemergence surinam grass; format: in vivo, Brachiaria decumbens
Summary of the method: (§1)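 Test chemicals in a non-phytotoxic solvent mixture with surfactant were sprayed preemergence onto planted seeds and postemergence onto plants 2 to 18 cm tall (1- to 4-leaf stage). After twelve to sixteen days in a greenhouse, injury was visually rated against untreated controls from 0 (no effect) to 10 (complete control).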

giant foxtail = assay: Test B pre/postemergence giant foxtail; format: in vivo, Setaria faberii
Summary of the method: as §1

velvetleaf = assay: Test B pre/postemergence velvetleaf; format: in vivo, Abutilon theophrasti
Summary of the method: as §1

rice = assay: Test B flood test rice; format: in vivo, Oryza sativa
Summary of the method: (§2)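 Flood test on plants grown to the 2-leaf stage; treated plants kept in greenhouse twelve to sixteen days, then visually rated against controls on a 0 (no effect) to 10 (complete control) scale.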

wild oat = assay: Test B pre/postemergence wild oat; format: in vivo, Avena fatua
Summary of the method: as §1

pigweed = assay: Test B pre/postemergence pigweed; format: in vivo, Amaranthus retroflexus
Summary of the method: as §1

rape = assay: Test B pre/postemergence rape; format: in vivo, Brassica napus
Summary of the method: as §1

soybean = assay: Test B pre/postemergence soybean; format: in vivo, Glycine max
Summary of the method: as §1

corn = assay: Test B pre/postemergence corn; format: in vivo, Zea mays
Summary of the method: as §1

duck salad = assay: Test B flood test duck salad; format: in vivo, Heteranthera limosa
Summary of the method: as §2

morningglory = assay: Test B pre/postemergence morningglory; format: in vivo, Ipomoea hederacea
Summary of the method: as §1

purple nutsedge = assay: Test B pre/postemergence purple nutsedge; format: in vivo, Cyperus rotundus
Summary of the method: as §1

blackgrass = assay: Test B pre/postemergence blackgrass; format: in vivo, Alopecurus myosuroides
Summary of the method: as §1

crabgrass = assay: Test B pre/postemergence crabgrass; format: in vivo, Digitaria sanguinalis
Summary of the method: as §1

bedstraw = assay: Test B pre/postemergence bedstraw; format: in vivo, Galium aparine
Summary of the method: as §1

wheat = assay: Test B pre/postemergence wheat; format: in vivo, Triticum aestivum
Summary of the method: as §1

[1] = Preemergence, Rate 62 g/ha, scale of 0 to 10 where 0 is no effect and 10 is complete control
[2] = Preemergence, Rate 125 g/ha, 0 is no effect, 10 is complete control
[3] = Preemergence, Rate 250 g/ha, scale 0 to 10, 0 is no effect, 10 is complete control
[4] = Preemergence, Rate 500 g/ha, scale of 0 to 10 where 0 is no effect and 10 is complete control
[5] = Rate 62 g/ha, Postemergence, scale of 0 to 10 where 0 is no effect and 10 is complete control
[6] = Rate 125 g/ha, Postemergence, scale 0 to 10
[7] = Rate 500 g/ha, Postemergence, scale 0 to 10
[8] = Rate 62 g/ha, headed Pre-emergence (flood test species), scale 0 to 10 (0 no effect, 10 complete control)
[9] = Rate 125 g/ha, Pre-emergence, flood test species, scale 0 to 10 where 0 is no effect and 10 is complete control
[10] = Rate 250 g/ha, Pre-emergence, flood-test species, scale 0 to 10, 0 is no effect, 10 is complete control
[11] = Rate 500 g/ha, Pre-emergence, flood test species, scale 0 to 10 (0 no effect, 10 complete control)

CC(C)N(C(=O)n1oc(=O)n(Cc2ccco2)c1=O)c1ccc(Cl)cc1 [Compound 206]
0: B. signalgrass plant response rating (surinam grass; [1]) | B. signalgrass plant response rating (0 to 10 scale) (surinam grass; [2]) | B. signalgrass plant response rating (surinam grass; [3]) | Plant response rating, B. signalgrass (surinam grass; [4]) | B. signalgrass plant response rating (surinam grass; [5]) | B. signalgrass plant response rating (surinam grass; Rate 125 g/ha, Postemergence, scale 0 (no effect) to 10 (complete control)) | Plant response rating, B. signalgrass (surinam grass; Rate 250 g/ha, Postemergence, scale 0 to 10, 0 is no effect, 10 is complete control) | B. signalgrass plant response rating (surinam grass; Rate 500 g/ha, Postemergence, scale 0 to 10, 0 no effect, 10 complete control) | Giant foxtail plant response rating (giant foxtail; [1]) | Giant foxtail plant response rating (giant foxtail; [5]) | Giant foxtail plant response rating (giant foxtail; [6]) | Plant response rating (0 to 10; 0 is no effect, 10 is complete control), Giant foxtail (giant foxtail; Rate 250 g/ha, Postemergence) | Giant foxtail plant response rating (giant foxtail; [7]) | Velvetleaf plant response rating (velvetleaf; [1]) | Velvetleaf plant response rating (velvetleaf; [3]) | Plant response rating, Velvetleaf (velvetleaf; [4]) | Velvetleaf plant response rating (velvetleaf; [5]) | Velvetleaf plant response rating (velvetleaf; [6]) | Plant response rating (0 to 10; 0 is no effect, 10 is complete control), Velvetleaf (velvetleaf; Rate 250 g/ha, Postemergence) | Rice plant response rating (rice; [8]) | Rice plant response rating (rice; [9]) | Rice plant response rating (rice; [10]) | Rice plant response rating (rice; [11]) | Wild oats plant response rating (wild oat; [1]) | Wild oats plant response rating (wild oat; [3]) | Plant response rating, Wild oats (wild oat; [4]) | Wild oats plant response rating (wild oat; [5]) | Wild oats plant response rating (wild oat; [6]) | Plant response rating (0 to 10; 0 is no effect, 10 is complete control), Wild oats (wild oat; Rate 250 g/ha, Postemergence) | Redroot pigweed plant response rating (pigweed; [1]) | Redroot pigweed plant response rating (0 to 10 scale) (pigweed; [2]) | Redroot pigweed plant response rating (pigweed; [3]) | Redroot pigweed plant response rating (pigweed; [5]) | Redroot pigweed plant response rating (pigweed; [6]) | Redroot pigweed plant response rating (pigweed; [7]) | Rape plant response rating (rape; [1]) | Rape plant response rating (0 to 10 scale) (rape; [2]) | Rape plant response rating (rape; [3]) | Plant response rating, Rape (rape; [4]) | Rape plant response rating (rape; [5]) | Rape plant response rating (rape; [6]) | Plant response rating (0 to 10; 0 is no effect, 10 is complete control), Rape (rape; Rate 250 g/ha, Postemergence) | Rape plant response rating (rape; [7]) | Soybean plant response rating (soybean; [1]) | Soybean plant response rating (soybean; [3]) | Plant response rating, Soybean (soybean; [4]) | Soybean plant response rating (soybean; [5]) | Corn plant response rating (corn; [1]) | Corn plant response rating (0 to 10 scale) (corn; [2]) | Corn plant response rating (corn; [3]) | Plant response rating, Corn (corn; [4]) | Corn plant response rating (corn; [5]) | Corn plant response rating (corn; [6]) | Plant response rating (0 to 10; 0 is no effect, 10 is complete control), Corn (corn; Rate 250 g/ha, Postemergence) | Corn plant response rating (corn; [7]) | Ducksalad plant response rating (duck salad; [8]) | Ducksalad plant response rating (duck salad; [9]) | Ducksalad plant response rating (duck salad; [10]) | Ducksalad plant response rating (duck salad; [11]) | Morningglory plant response rating (morningglory; [1]) | Morningglory plant response rating (0 to 10 scale) (morningglory; [2]) | Morningglory plant response rating (morningglory; [3]) | Plant response rating, Morningglory (morningglory; [4]) | Nutsedge plant response rating (purple nutsedge; [1]) | Nutsedge plant response rating (0 to 10 scale) (purple nutsedge; [2]) | Nutsedge plant response rating (purple nutsedge; [3]) | Plant response rating, Nutsedge (purple nutsedge; [4]) | Nutsedge plant response rating (purple nutsedge; [5]) | Nutsedge plant response rating (purple nutsedge; [6]) | Plant response rating (0 to 10; 0 is no effect, 10 is complete control), Nutsedge (purple nutsedge; Rate 250 g/ha, Postemergence) | Nutsedge plant response rating (purple nutsedge; [7]) | Blackgrass plant response rating (blackgrass; [1]) | Blackgrass plant response rating (0 to 10 scale) (blackgrass; [2]) | Blackgrass plant response rating (blackgrass; [3]) | Plant response rating, Blackgrass (blackgrass; [4]) | Blackgrass plant response rating (blackgrass; [5]) | Blackgrass plant response rating (blackgrass; [6]) | Plant response rating (0 to 10; 0 is no effect, 10 is complete control), Blackgrass (blackgrass; Rate 250 g/ha, Postemergence) | Blackgrass plant response rating (blackgrass; [7]) | Crabgrass plant response rating (crabgrass; [1]) | Crabgrass plant response rating (0 to 10 scale) (crabgrass; [2]) | Crabgrass plant response rating (crabgrass; [5]) | Crabgrass plant response rating (crabgrass; [6]) | Plant response rating (0 to 10; 0 is no effect, 10 is complete control), Crabgrass (crabgrass; Rate 250 g/ha, Postemergence) | Crabgrass plant response rating (crabgrass; [7]) | Bedstraw plant response rating (bedstraw; [1]) | Bedstraw plant response rating (0 to 10 scale) (bedstraw; [2]) | Bedstraw plant response rating (bedstraw; [3]) | Plant response rating, Bedstraw (bedstraw; [4]) | Bedstraw plant response rating (bedstraw; [5]) | Bedstraw plant response rating (bedstraw; [6]) | Plant response rating (0 to 10; 0 is no effect, 10 is complete control), Bedstraw (bedstraw; Rate 250 g/ha, Postemergence) | Bedstraw plant response rating (bedstraw; [7]) | Wheat plant response rating (wheat; [1]) | Wheat plant response rating (wheat; [3]) | Plant response rating, Wheat (wheat; [4]) | Wheat plant response rating (wheat; [5]) | Wheat plant response rating (wheat; [6]) | Plant response rating (0 to 10; 0 is no effect, 10 is complete control), Wheat (wheat; Rate 250 g/ha, Postemergence)
2: Plant response rating (0 to 10; 0 is no effect, 10 is complete control), Soybean (soybean; Rate 250 g/ha, Postemergence) | Soybean plant response rating (soybean; [7]) | Plant response rating (0 to 10; 0 is no effect, 10 is complete control), Morningglory (morningglory; Rate 250 g/ha, Postemergence)
1: Soybean plant response rating (0 to 10 scale) (soybean; [2]) | Soybean plant response rating (soybean; [6]) | Morningglory plant response rating (morningglory; [5]) | Morningglory plant response rating (morningglory; [6])
5: Morningglory plant response rating (morningglory; [7])
8: Giant foxtail plant response rating (giant foxtail; [3]) | Plant response rating, Crabgrass (crabgrass; [4])
9: Plant response rating, Giant foxtail (giant foxtail; [4])
3: Giant foxtail plant response rating (0 to 10 scale) (giant foxtail; [2]) | Plant response rating, Redroot pigweed (pigweed; [4]) | Plant response rating (0 to 10; 0 is no effect, 10 is complete control), Redroot pigweed (pigweed; Rate 250 g/ha, Postemergence) | Crabgrass plant response rating (crabgrass; [3])

Reference: patent publication US6737383B1, “Herbicidal oxadiazolidines” (priority 1999, dated 2004)
